Measurements from patent publication US10344060B2 (priority 2013, dated 2019).
Where two headings read alike, the source gives them in different places.

What was measured:
Assay in all cases: cell-based
hNav1.7 [1] = molecular target: T1, hNav1.7 (Homo sapiens, UniProt Q15858); settings: for IC50: read-out: IC50 (μM) Nav1.7
hNav1.5 = hNav1.5 (Homo sapiens, UniProt Q14524); settings: IonWorks Quattro; Table 6; read-out: IC50 (μM) Nav1.5
hNav1.4 [2] = molecular target: T2, hNav1.4 (Homo sapiens, UniProt P35499); type: cell-based; settings: Table 6; for IC50: IonWorks Quattro, read-out: IC50 (μM) Nav1.4; for Nav1.4/Nav1.7: ratio of IonWorks Quattro IC50 values
hNav1.3 = hNav1.3 (Homo sapiens, UniProt Q9NY46); settings: IonWorks Quattro; Table 6; read-out: IC50 (μM) Nav1.3
hNav1.6 = hNav1.6 (Homo sapiens, UniProt Q9UQD0); type: cell-based; settings: Table 15; for IC50: read-out: PX hNav1.6 Tonic IC50
hNav1.7 [3] = molecular target: T1, hNav1.7; type: cell-based; settings: for Nav1.4/Nav1.7 / Nav1.5/Nav1.7: ratio of PX tonic IC50 values, Table 11
hNav1.4 [4] = molecular target: T2, hNav1.4; type: cell-based; settings: PX

hNav1.5, sequence (Q14524 whole entry): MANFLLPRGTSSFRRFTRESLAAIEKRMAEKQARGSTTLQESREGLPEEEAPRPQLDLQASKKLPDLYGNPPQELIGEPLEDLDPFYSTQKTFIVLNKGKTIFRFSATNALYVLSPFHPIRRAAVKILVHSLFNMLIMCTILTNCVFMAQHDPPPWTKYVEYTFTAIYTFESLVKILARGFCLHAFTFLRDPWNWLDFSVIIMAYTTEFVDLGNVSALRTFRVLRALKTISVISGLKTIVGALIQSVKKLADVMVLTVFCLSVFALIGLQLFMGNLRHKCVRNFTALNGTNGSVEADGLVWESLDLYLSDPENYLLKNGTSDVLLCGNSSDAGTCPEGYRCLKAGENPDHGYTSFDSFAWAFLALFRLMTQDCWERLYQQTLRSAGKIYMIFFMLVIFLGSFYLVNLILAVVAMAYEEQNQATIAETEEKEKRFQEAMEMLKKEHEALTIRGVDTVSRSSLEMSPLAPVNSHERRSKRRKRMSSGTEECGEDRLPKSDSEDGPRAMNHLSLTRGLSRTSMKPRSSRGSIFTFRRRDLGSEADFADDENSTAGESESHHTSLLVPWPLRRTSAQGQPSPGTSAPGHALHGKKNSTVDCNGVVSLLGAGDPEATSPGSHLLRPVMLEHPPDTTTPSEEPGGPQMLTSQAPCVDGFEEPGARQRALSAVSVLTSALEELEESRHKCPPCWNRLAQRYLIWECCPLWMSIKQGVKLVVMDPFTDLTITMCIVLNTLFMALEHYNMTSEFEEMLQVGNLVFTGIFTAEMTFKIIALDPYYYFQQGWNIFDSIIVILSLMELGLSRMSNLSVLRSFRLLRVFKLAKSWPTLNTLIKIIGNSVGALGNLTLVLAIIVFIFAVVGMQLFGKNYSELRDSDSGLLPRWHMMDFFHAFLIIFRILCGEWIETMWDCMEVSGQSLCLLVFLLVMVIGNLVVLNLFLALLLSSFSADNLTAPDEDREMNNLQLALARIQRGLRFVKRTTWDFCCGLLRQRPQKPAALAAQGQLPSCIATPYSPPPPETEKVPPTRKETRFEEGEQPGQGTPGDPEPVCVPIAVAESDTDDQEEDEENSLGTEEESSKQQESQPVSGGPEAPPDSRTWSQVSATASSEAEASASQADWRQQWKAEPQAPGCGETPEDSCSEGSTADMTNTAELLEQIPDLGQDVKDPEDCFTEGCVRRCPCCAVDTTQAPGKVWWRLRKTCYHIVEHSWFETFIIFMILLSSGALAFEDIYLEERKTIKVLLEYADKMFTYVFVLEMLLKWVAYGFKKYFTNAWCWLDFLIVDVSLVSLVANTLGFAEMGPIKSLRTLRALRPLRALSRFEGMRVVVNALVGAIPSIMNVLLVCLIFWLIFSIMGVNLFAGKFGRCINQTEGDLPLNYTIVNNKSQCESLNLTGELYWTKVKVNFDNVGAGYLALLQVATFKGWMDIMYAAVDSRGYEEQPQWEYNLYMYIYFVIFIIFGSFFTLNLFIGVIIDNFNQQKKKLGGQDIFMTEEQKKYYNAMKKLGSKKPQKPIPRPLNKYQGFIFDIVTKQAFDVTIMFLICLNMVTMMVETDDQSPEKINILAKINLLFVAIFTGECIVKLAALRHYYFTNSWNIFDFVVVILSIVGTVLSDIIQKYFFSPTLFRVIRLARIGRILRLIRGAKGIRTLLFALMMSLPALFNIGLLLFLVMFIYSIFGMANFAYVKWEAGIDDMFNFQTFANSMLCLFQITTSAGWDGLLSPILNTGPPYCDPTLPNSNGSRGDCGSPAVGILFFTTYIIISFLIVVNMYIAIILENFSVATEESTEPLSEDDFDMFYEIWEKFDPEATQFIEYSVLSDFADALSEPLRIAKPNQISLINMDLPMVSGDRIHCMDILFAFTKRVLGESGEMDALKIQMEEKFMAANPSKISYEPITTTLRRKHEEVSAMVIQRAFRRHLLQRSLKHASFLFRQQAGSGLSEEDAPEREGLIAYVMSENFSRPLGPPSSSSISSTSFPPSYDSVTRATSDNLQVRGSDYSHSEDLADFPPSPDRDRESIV
T2 sequence (P35499 whole entry): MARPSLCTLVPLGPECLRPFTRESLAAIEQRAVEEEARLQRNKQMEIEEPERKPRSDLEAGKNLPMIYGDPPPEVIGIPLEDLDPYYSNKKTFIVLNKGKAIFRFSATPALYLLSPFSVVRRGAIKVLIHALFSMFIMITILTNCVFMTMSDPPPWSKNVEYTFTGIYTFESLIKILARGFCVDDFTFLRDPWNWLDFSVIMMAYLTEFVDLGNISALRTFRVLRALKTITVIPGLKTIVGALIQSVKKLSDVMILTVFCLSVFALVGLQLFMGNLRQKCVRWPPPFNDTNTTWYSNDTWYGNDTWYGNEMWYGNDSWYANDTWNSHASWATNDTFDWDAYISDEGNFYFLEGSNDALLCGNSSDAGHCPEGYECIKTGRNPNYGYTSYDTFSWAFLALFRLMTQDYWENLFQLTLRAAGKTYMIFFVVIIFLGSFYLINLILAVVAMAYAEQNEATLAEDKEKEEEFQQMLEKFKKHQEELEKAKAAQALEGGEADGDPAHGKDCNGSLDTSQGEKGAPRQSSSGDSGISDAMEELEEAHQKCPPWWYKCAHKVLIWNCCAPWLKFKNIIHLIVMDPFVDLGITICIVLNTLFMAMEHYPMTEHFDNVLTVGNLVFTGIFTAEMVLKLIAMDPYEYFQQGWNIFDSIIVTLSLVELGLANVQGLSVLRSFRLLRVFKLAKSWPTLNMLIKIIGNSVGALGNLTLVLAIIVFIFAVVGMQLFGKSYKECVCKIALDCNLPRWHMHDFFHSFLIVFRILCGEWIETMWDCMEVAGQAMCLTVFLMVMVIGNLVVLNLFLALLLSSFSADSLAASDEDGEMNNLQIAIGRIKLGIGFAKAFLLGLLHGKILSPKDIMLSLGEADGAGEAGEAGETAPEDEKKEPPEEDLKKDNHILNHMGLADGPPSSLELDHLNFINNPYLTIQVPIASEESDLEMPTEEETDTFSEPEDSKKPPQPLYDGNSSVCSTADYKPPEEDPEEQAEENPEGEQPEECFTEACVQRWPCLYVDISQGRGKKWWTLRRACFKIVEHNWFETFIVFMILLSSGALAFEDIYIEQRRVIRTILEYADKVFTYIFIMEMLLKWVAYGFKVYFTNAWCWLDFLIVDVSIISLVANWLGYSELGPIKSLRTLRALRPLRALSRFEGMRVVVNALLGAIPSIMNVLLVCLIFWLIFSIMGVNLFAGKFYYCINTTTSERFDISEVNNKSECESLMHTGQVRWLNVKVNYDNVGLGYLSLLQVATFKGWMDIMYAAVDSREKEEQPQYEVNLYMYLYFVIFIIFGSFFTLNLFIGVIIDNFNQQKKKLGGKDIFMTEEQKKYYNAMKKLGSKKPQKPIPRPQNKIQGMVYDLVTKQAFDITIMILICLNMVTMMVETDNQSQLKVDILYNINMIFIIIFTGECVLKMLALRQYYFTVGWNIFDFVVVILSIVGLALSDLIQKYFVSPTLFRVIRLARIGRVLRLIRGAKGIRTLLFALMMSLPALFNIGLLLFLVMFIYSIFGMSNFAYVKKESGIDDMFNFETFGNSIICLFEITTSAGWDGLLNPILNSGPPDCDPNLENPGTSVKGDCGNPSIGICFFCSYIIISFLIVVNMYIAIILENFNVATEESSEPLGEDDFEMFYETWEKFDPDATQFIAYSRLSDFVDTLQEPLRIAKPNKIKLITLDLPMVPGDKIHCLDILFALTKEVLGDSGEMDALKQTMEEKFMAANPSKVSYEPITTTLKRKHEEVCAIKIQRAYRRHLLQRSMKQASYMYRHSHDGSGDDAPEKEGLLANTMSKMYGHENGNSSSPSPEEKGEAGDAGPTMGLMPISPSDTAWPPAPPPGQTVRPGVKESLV

| SMILES | IC50 (hNav1.7 [1]) [µM] | IC50 (hNav1.5) [µM] | IC50 (hNav1.4 [2]) [µM] | Nav1.4/Nav1.7 (hNav1.4 [2]) | IC50 (hNav1.3) [µM] | IC50 (hNav1.6) [µM] | IC50 (hNav1.7 [3]; Table 15, read-out: PX hNav1.7 Tonic IC50) [µM] | Nav1.4/Nav1.7 (hNav1.7 [3]) | Nav1.5/Nav1.7 (hNav1.7 [3]) | Nav1.6/Nav1.7 (hNav1.6; ratio of PX tonic IC50 values) | Nav1.4/Nav1.7 (hNav1.7 [1]; ratio of IonWorks Quattro IC50 values, Nav1.4 over Nav1.7) | selectivity against hNav1.4 relative to hNav1.7 (hNav1.4 [4]) |
| --- | --- | --- | --- | --- | --- | --- | --- | --- | --- | --- | --- | --- |
| CC[C@H](C)[C@H](NC(=O)[C@@H](NC(=O)[C@H](CCCCN)NC(=O)[C@H](CCCNC(=N)N)NC(=O)[C@@H]1CSSC[C@@H]2NC(=O)[C@H](C)NC(=O)[C@H](CCCNC(=N)N)NC(=O)[C@H](CCCCN)NC(=O)[C@H](CO)NC(=O)[C@H](CC(=O)O)NC(=O)[C@@H]3CSSC[C@H](NC(=O)[C@H](CCCNC(=N)N)NC(=O)[C@H](CC(C)C)NC(=O)CNC(=O)[C@H](CCC(=O)O)NC(=O)[C@H](CSSC[C@H](NC(=O)[C@@H](N)Cc4ccc(O)cc4)C(=O)N[C@@H](CCC(N)=O)C(=O)N[C@@H](CCCCN)C(=O)N[C@@H](Cc4c[nH]c5ccccc45)C(=O)N[C@@H](CCSC)C(=O)N[C@@H](CCC(=O)O)C(=O)N[C@@H]([C@@H](C)O)C(=O)N3)NC2=O)C(=O)N[C@@H](CCCCN)C(=O)N[C@@H](CC(C)C)C(=O)N[C@@H](Cc2c[nH]c3ccccc23)C(=O)N1)[C@@H](C)CC)C(N)=O [compound 54] | 0.56 | > 5 | 2.6 | 5 | 2.8 | > 10 | – | – | – | – | – | – |
| CC[C@H](C)[C@H](NC(=O)[C@H](CCC(=O)O)NC(=O)[C@H](CCCCN)NC(=O)[C@H](CCCNC(=N)N)NC(=O)[C@@H]1CSSC[C@@H]2NC(=O)[C@H](C)NC(=O)[C@H](CCCNC(=N)N)NC(=O)[C@H](CCCCN)NC(=O)[C@H](CO)NC(=O)[C@H](CC(=O)O)NC(=O)[C@@H]3CSSC[C@H](NC(=O)[C@H](CCCNC(=N)N)NC(=O)[C@H](CC(C)C)NC(=O)CNC(=O)[C@H](CCC(=O)O)NC(=O)[C@H](CSSC[C@H](NC(=O)[C@@H](N)Cc4ccc(O)cc4)C(=O)N[C@@H](CCC(N)=O)C(=O)N[C@@H](CCCCN)C(=O)N[C@@H](Cc4c[nH]c5ccccc45)C(=O)N[C@@H](CCSC)C(=O)N[C@@H](Cc4c[nH]c5ccccc45)C(=O)N[C@@H]([C@@H](C)O)C(=O)N3)NC2=O)C(=O)N[C@@H](CCCCN)C(=O)N[C@@H](CC(C)C)C(=O)N[C@@H](Cc2c[nH]c3ccccc23)C(=O)N1)C(N)=O [compound 69] | 0.028 | > 5 | 0.83 | 30 | 0.33 | 0.248 | 0.000568 | 300 | 8800 | 437 | – | – |
| CC[C@H](C)[C@H](NC(=O)[C@@H](NC(=O)[C@H](CCCCN)NC(=O)[C@H](CCCNC(=N)N)NC(=O)[C@@H]1CSSC[C@@H]2NC(=O)[C@H](CCC(=O)O)NC(=O)[C@H](CCCNC(=N)N)NC(=O)[C@H](CCCCN)NC(=O)[C@H](CO)NC(=O)[C@H](CC(=O)O)NC(=O)[C@@H]3CSSC[C@H](NC(=O)[C@H](CCCNC(=N)N)NC(=O)[C@H](CC(C)C)NC(=O)CNC(=O)[C@H](CCC(=O)O)NC(=O)[C@H](CSSC[C@H](NC(=O)[C@@H](N)Cc4ccc(O)cc4)C(=O)N[C@@H](CCC(N)=O)C(=O)N[C@@H](CCCCN)C(=O)N[C@@H](Cc4c[nH]c5ccccc45)C(=O)N[C@@H](CCSC)C(=O)N[C@@H](Cc4c[nH]c5ccccc45)C(=O)N[C@@H]([C@@H](C)O)C(=O)N3)NC2=O)C(=O)N[C@@H](CCCCN)C(=O)N[C@@H](CC(C)C)C(=O)N[C@@H](Cc2c[nH]c3ccccc23)C(=O)N1)[C@@H](C)CC)C(N)=O [compound 60] | 0.02 | > 5 | 0.23 | 12 | 0.11 | 0.146 | – | – | – | – | – | – |
| CC[C@H](C)[C@H](NC(=O)[C@@H](NC(=O)[C@H](CCCCN)NC(=O)[C@H](CCCNC(=N)N)NC(=O)[C@@H]1CSSC[C@@H]2NC(=O)[C@H](C)NC(=O)[C@H](CCCNC(=N)N)NC(=O)[C@H](CCCCN)NC(=O)[C@H](CO)NC(=O)[C@H](CC(=O)O)NC(=O)[C@@H]3CSSC[C@H](NC(=O)[C@H](CCCNC(=N)N)NC(=O)[C@H](CC(C)C)NC(=O)CNC(=O)[C@H](CCC(=O)O)NC(=O)[C@H](CSSC[C@H](NC(=O)[C@@H](N)CCC(=O)O)C(=O)N[C@@H](CCC(N)=O)C(=O)N[C@@H](CCCCN)C(=O)N[C@@H](Cc4c[nH]c5ccccc45)C(=O)N[C@@H](CCSC)C(=O)N[C@@H](Cc4c[nH]c5ccccc45)C(=O)N[C@@H]([C@@H](C)O)C(=O)N3)NC2=O)C(=O)N[C@@H](CCCCN)C(=O)N[C@@H](CC(C)C)C(=O)N[C@@H](Cc2c[nH]c3ccccc23)C(=O)N1)[C@@H](C)CC)C(N)=O [compound 49] | 0.018 | > 5 | 0.23 | 13 | 0.16 | – | – | 27 | 21467 | – | – | – |
| CC[C@H](C)[C@H](NC(=O)[C@@H](NC(=O)[C@H](CCCCN)NC(=O)[C@H](CCCNC(=N)N)NC(=O)[C@@H]1CSSC[C@@H]2NC(=O)[C@H](C)NC(=O)[C@H](CCCNC(=N)N)NC(=O)[C@H](CCCCN)NC(=O)[C@H](CO)NC(=O)[C@H](CC(=O)O)NC(=O)[C@@H]3CSSC[C@H](NC(=O)[C@H](CCC(=O)O)NC(=O)[C@H](CC(C)C)NC(=O)CNC(=O)[C@H](CCC(=O)O)NC(=O)[C@H](CSSC[C@H](NC(=O)[C@@H](N)Cc4ccc(O)cc4)C(=O)N[C@@H](CCC(N)=O)C(=O)N[C@@H](CCCCN)C(=O)N[C@@H](Cc4c[nH]c5ccccc45)C(=O)N[C@@H](CCSC)C(=O)N[C@@H](Cc4c[nH]c5ccccc45)C(=O)N[C@@H]([C@@H](C)O)C(=O)N3)NC2=O)C(=O)N[C@@H](CCCCN)C(=O)N[C@@H](CC(C)C)C(=O)N[C@@H](Cc2c[nH]c3ccccc23)C(=O)N1)[C@@H](C)CC)C(N)=O [compound 63] | 0.073 | > 5 | 4.6 | 63 | 2.5 | – | – | 179 | 1333 | – | 14 | greater than 1000 fold |
| CC[C@H](C)[C@H](NC(=O)[C@@H](NC(=O)[C@H](CCCCN)NC(=O)[C@H](CCCNC(=N)N)NC(=O)[C@@H]1CSSC[C@@H]2NC(=O)[C@H](C)NC(=O)[C@H](CCCNC(=N)N)NC(=O)[C@H](CCCCN)NC(=O)[C@H](CO)NC(=O)[C@H](CC(=O)O)NC(=O)[C@@H]3CSSC[C@H](NC(=O)[C@H](CCCNC(=N)N)NC(=O)[C@H](CC(C)C)NC(=O)CNC(=O)[C@H](CCC(=O)O)NC(=O)[C@H](CSSC[C@H](NC(=O)[C@@H](N)Cc4ccc(O)cc4)C(=O)N[C@@H](CCC(N)=O)C(=O)N[C@@H](CCCCN)C(=O)N[C@@H](Cc4c[nH]c5ccccc45)C(=O)N[C@@H](CCSC)C(=O)N[C@@H](Cc4c[nH]c5ccccc45)C(=O)N[C@@H]([C@@H](C)O)C(=O)N3)NC2=O)C(=O)N[C@@H](CCCCN)C(=O)N[C@@H](CCC(=O)O)C(=O)N[C@@H](Cc2c[nH]c3ccccc23)C(=O)N1)[C@@H](C)CC)C(N)=O [compound 65] | 4 | > 5 | > 5 | 1 | 2 | 9.55 | – | – | – | – | – | – |
| CC[C@H](C)[C@H](NC(=O)[C@@H](NC(=O)[C@H](CCCCN)NC(=O)[C@H](CCCNC(=N)N)NC(=O)[C@@H]1CSSC[C@@H]2NC(=O)[C@H](C)NC(=O)[C@H](CCCNC(=N)N)NC(=O)[C@H](CCCCN)NC(=O)[C@H](CCC(=O)O)NC(=O)[C@H](CC(=O)O)NC(=O)[C@@H]3CSSC[C@H](NC(=O)[C@H](CCCNC(=N)N)NC(=O)[C@H](CC(C)C)NC(=O)CNC(=O)[C@H](CCC(=O)O)NC(=O)[C@H](CSSC[C@H](NC(=O)[C@@H](N)Cc4ccc(O)cc4)C(=O)N[C@@H](CCC(N)=O)C(=O)N[C@@H](CCCCN)C(=O)N[C@@H](Cc4c[nH]c5ccccc45)C(=O)N[C@@H](CCSC)C(=O)N[C@@H](Cc4c[nH]c5ccccc45)C(=O)N[C@@H]([C@@H](C)O)C(=O)N3)NC2=O)C(=O)N[C@@H](CCCCN)C(=O)N[C@@H](CC(C)C)C(=O)N[C@@H](Cc2c[nH]c3ccccc23)C(=O)N1)[C@@H](C)CC)C(N)=O [compound 57] | 0.039 | > 5 | 0.38 | 10 | 0.19 | 0.2 | – | – | – | – | – | – |
| CC[C@H](C)[C@H](NC(=O)[C@@H](NC(=O)[C@H](CCCCN)NC(=O)[C@H](CCCNC(=N)N)NC(=O)[C@@H]1CSSC[C@@H]2NC(=O)[C@H](C)NC(=O)[C@H](CCCNC(=N)N)NC(=O)[C@H](CCCCN)NC(=O)[C@H](CO)NC(=O)[C@H](CC(=O)O)NC(=O)[C@@H]3CSSC[C@H](NC(=O)[C@H](C)NC(=O)[C@H](CC(C)C)NC(=O)CNC(=O)[C@H](CCC(=O)O)NC(=O)[C@H](CSSC[C@H](NC(=O)[C@@H](N)Cc4ccc(O)cc4)C(=O)N[C@@H](CCC(N)=O)C(=O)N[C@@H](CCCCN)C(=O)N[C@@H](Cc4c[nH]c5ccccc45)C(=O)N[C@@H](CCSC)C(=O)N[C@@H](Cc4c[nH]c5ccccc45)C(=O)N[C@@H]([C@@H](C)O)C(=O)N3)NC2=O)C(=O)N[C@@H](CCCCN)C(=O)N[C@@H](CC(C)C)C(=O)N[C@@H](Cc2c[nH]c3ccccc23)C(=O)N1)[C@@H](C)CC)C(N)=O [compound 17] | 0.009 | > 5 | 0.42 | 46 | 0.26 | – | – | 8 | 229 | – | – | – |
